Reference: patent US20250304620A1, “ANTIMICROBIAL PEPTIDE AND APPLICATION THEREOF” (priority 2023, published 2025)
Values after ≈ are worked out from the molar mass of the structure shown. Marks after values point to notes of the source that are not given here. Non-standard residues stand in square brackets, D forms with d. Residues, ends and D or L forms follow the SMILES beside them. dPhe(3,4-Cl2) = N[C@H](Cc1ccc(Cl)c(Cl)c1)C(=O)O; dPhe(4-CF3) = N[C@H](Cc1ccc(C(F)(F)F)cc1)C(=O)O; dPhe(4-Br) = N[C@H](Cc1ccc(Br)cc1)C(=O)O; dPhe(4-Cl) = N[C@H](Cc1ccc(Cl)cc1)C(=O)O; dPhe(4-Me) = Cc1ccc(C[C@@H](N)C(=O)O)cc1; d2Nal = N[C@H](Cc1ccc2ccccc2c1)C(=O)O; dNle = CCCC[C@@H](N)C(=O)O; dNva = CCC[C@@H](N)C(=O)O

Assays:
[1] = test system: Pseudomonas aeruginosa ATCC 27853; assay: Injectable formulations on mice infected with peritonitis; type: in vivo, ICR mice; conditions: twice a day for 3 days; for Number of mice that died on each day after infection: day 1 / Number of mice that died on each day after infection: day 2 / Number of mice that died on each day after infection: day 3 / Number of mice that died on each day after infection: day 4 / Number of mice that died on each day after infection: day 5 / Average survival times (Days): n = 10; for Average survival times (Days): observed for 14 d
Experimental: Both female and male ICR mice were used in the test, half of the female and male mice were taken and randomly assigned into groups, with 10 mice in each group, and kept in separate cages. The mice were divided into a blank control group, a negative control group, a positive control Levofloxacin group, and AMPs LV-1 to LV-30 groups. A bacterial suspension of Pseudomonas aeruginosa ATCC 27853 was prepared, a concentration of the suspension was adjusted 1×10^9 CFU/mL for subsequent use. Except for the blank control group, all other mice were injected with the bacterial suspension (0.2 mL, 1×10^9 CFU/mL), into abdominal cavity of the mice, to establish a model. After the model was successfully established, the mice were given drug immediately according to their body weights. Except for the blank control group and the negative control group, the mice in all other groups were administered the corresponding injectable formulations via tail vein, twice a day for 3 consecutive days. The mice were then observed for 14 d. The death of mice in each group was observed, and survival time of the mice was recorded. Results of the effect of the injectable formulations of AMPs LV-1 to LV-30 on the survival time of mice infected with Pseudomonas aeruginosa are shown in Table 10.

[2] = test system: carbapenem-resistant Klebsiella pneumoniae (CRKP); type: cell-based; conditions: carbapenem-resistant (CRKP)
Source text: (§1) According to the Standards of Clinical and Laboratory Standards Institute (CLSI) of the USA for antimicrobial drug susceptibility test operation standards, the micronutrient serial twofold dilution method was used further determine MICs of the antimicrobial peptides LV-1 to LV-30 against 5 clinically common drug-resistant bacterial strains. The experiment was repeated 5 times in parallel. […] The tested drug-resistant strains included Methicillin-resistant Staphylococcus aureus (MRSA), carbapenem-resistant Escherichia coli (CREC), vancomycin-resistant Enterococcus (VRE), carbapenem-resistant Pseudomonas aeruginosa (CRPA), and carbapenem-resistant Klebsiella pneumoniae (CRKP).

[3] = test system: vancomycin-resistant Enterococcus (VRE); type: cell-based
Source text: as §1

[4] = test system: Methicillin-resistant Staphylococcus aureus (MRSA); type: cell-based; conditions: Methicillin-resistant
Source text: as §1

[5] = test system: carbapenem-resistant Escherichia coli (CREC); type: cell-based; conditions: carbapenem-resistant (CREC)
Source text: as §1

[6] = test system: carbapenem-resistant Pseudomonas aeruginosa (CRPA); type: cell-based; conditions: carbapenem-resistant (CRPA)
Source text: as §1

[7] = test system: Staphylococcus aureus (NRS 384); assay: microbe, parasite or virus in culture; type: cell-based; conditions: NRS 384
Procedure, shortened: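 MICs were read against S. aureus strain NRS 384 using twofold serial dilution by CLSI microdilution rules. Levofloxacin and Cbf-K16 were the reference controls, and the test was repeated 5 times in parallel.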

SMILES	Number of mice that died on each day after infection: day 1 ([1]; 1 mg/kg via tail vein) [Mouse]	Number of mice that died on each day after infection: day 2 ([1]; 1 mg/kg via tail vein) [Mouse]	Number of mice that died on each day after infection: day 3 ([1]; 1 mg/kg via tail vein) [Mouse]	Number of mice that died on each day after infection: day 4 ([1]; 1 mg/kg via tail vein) [Mouse]	Number of mice that died on each day after infection: day 5 ([1]; 1 mg/kg via tail vein) [Mouse]	Average survival times (Days) ([1]; 1 mg/kg via tail vein)	MIC CRKP [2] [mg/L]	MIC VRE [3] [mg/L]	MIC MRSA [4] [mg/L]	MIC CREC [5] [mg/L]	MIC CRPA [6] [mg/L]	MIC against Staphylococcus aureus (NRS 384) [7] [mg/L]	other results
CC(=O)N[C@H](CCCNC(=N)N)C(=O)N[C@H](CCCCN)C(=O)N[C@H](CC(C)C)C(=O)N[C@H](CC(C)C)C(=O)N[C@H](Cc1ccc(Cl)cc1)C(=O)N[C@H](CCCCN)C(=O)N[C@H](CC(C)C)C(=O)N[C@H](CCCCN)C(=O)N[C@H](Cc1ccc(Cl)cc1)C(=O)N[C@H](CCCCN)C(=O)N[C@H](CCCNC(=N)N)C(N)=O [LV-7] (Ac-[dR][dK][dL][dL][dPhe(4-Cl)][dK][dL][dK][dPhe(4-Cl)][dK][dR]-NH2)	0	1	1	1	1	9.8*** Days	4 (≈ 2.52 µM)	4 (≈ 2.52 µM)	2 (≈ 1.26 µM)	8 (≈ 5.04 µM)	2 (≈ 1.26 µM)	1 (≈ 0.63 µM)	–
CC(=O)N[C@H](CCCNC(=N)N)C(=O)N[C@H](CCCCN)C(=O)N[C@H](CC(C)C)C(=O)N[C@H](CC(C)C)C(=O)N[C@H](Cc1ccc(Cl)c(Cl)c1)C(=O)N[C@H](CCCCN)C(=O)N[C@H](CC(C)C)C(=O)N[C@H](CCCCN)C(=O)N[C@H](Cc1ccc(Cl)c(Cl)c1)C(=O)N[C@H](CCCCN)C(=O)N[C@H](CCCNC(=N)N)C(N)=O [LV-8] (Ac-[dR][dK][dL][dL][dPhe(3,4-Cl2)][dK][dL][dK][dPhe(3,4-Cl2)][dK][dR]-NH2)	1	1	0	1	1	9.6*** Days	2 (≈ 1.21 µM)	8 (≈ 4.83 µM)	4 (≈ 2.42 µM)	4 (≈ 2.42 µM)	8 (≈ 4.83 µM)	1 (≈ 0.604 µM)	–
CC(=O)N[C@H](CCCNC(=N)N)C(=O)N[C@H](CCCCN)C(=O)N[C@H](CC(C)C)C(=O)N[C@H](CC(C)C)C(=O)N[C@H](Cc1ccc(C(F)(F)F)cc1)C(=O)N[C@H](CCCCN)C(=O)N[C@H](CC(C)C)C(=O)N[C@H](CCCCN)C(=O)N[C@H](Cc1ccc(C(F)(F)F)cc1)C(=O)N[C@H](CCCCN)C(=O)N[C@H](CCCNC(=N)N)C(N)=O [LV-9] (Ac-[dR][dK][dL][dL][dPhe(4-CF3)][dK][dL][dK][dPhe(4-CF3)][dK][dR]-NH2)	1	2	0	1	0	9.3*** Days	8 (≈ 4.84 µM)	4 (≈ 2.42 µM)	2 (≈ 1.21 µM)	2 (≈ 1.21 µM)	4 (≈ 2.42 µM)	1 (≈ 0.605 µM)	–
CC(=O)N[C@H](CCCCN)C(=O)N[C@H](CCCCN)C(=O)N[C@H](CC(C)C)C(=O)N[C@H](CC(C)C)C(=O)N[C@H](Cc1ccc(Br)cc1)C(=O)N[C@H](CCCNC(=N)N)C(=O)N[C@H](CC(C)C)C(=O)N[C@H](CCCCN)C(=O)N[C@H](Cc1ccc(Br)cc1)C(=O)N[C@H](CCCNC(=N)N)C(=O)N[C@H](CCCCN)C(N)=O [LV-10] (Ac-[dK][dK][dL][dL][dPhe(4-Br)][dR][dL][dK][dPhe(4-Br)][dR][dK]-NH2)	0	1	1	2	0	9.7*** Days	2 (≈ 1.19 µM)	8 (≈ 4.77 µM)	4 (≈ 2.39 µM)	4 (≈ 2.39 µM)	2 (≈ 1.19 µM)	1 (≈ 0.597 µM)	–
CC(=O)N[C@H](CCCNC(=N)N)C(=O)N[C@H](CCCCN)C(=O)N[C@H](CC(C)C)C(=O)N[C@H](CC(C)C)C(=O)N[C@H](Cc1ccc(C)cc1)C(=O)N[C@H](CCCCN)C(=O)N[C@H](CC(C)C)C(=O)N[C@H](CCCCN)C(=O)N[C@H](Cc1ccc(C)cc1)C(=O)N[C@H](CCCCN)C(=O)N[C@H](CCCNC(=N)N)C(N)=O [LV-11] (Ac-[dR][dK][dL][dL][dPhe(4-Me)][dK][dL][dK][dPhe(4-Me)][dK][dR]-NH2)	0	1	1	0	2	9.9**** Days	8 (≈ 5.17 µM)	4 (≈ 2.59 µM)	2 (≈ 1.29 µM)	2 (≈ 1.29 µM)	4 (≈ 2.59 µM)	1 (≈ 0.647 µM)	–
CCCC[C@@H](NC(=O)[C@@H](CCCCN)NC(=O)[C@@H](CCCNC(=N)N)NC(C)=O)C(=O)N[C@H](CCCC)C(=O)N[C@H](Cc1ccc2ccccc2c1)C(=O)N[C@H](CCCNC(=N)N)C(=O)N[C@H](CCCC)C(=O)N[C@H](CCCCN)C(=O)N[C@H](Cc1ccc2ccccc2c1)C(=O)N[C@H](CCCNC(=N)N)C(=O)N[C@H](CCCCN)C(N)=O [LV-12] (Ac-[dR][dK][dNle][dNle][d2Nal][dR][dNle][dK][d2Nal][dR][dK]-NH2)	0	0	2	0	1	10.9**** Days	4 (≈ 2.43 µM)	4 (≈ 2.43 µM)	8 (≈ 4.86 µM)	8 (≈ 4.86 µM)	2 (≈ 1.21 µM)	1 (≈ 0.607 µM)	Number of mice that died on each day after infection: day 1 ([1]; 0.2 mg/kg via tail vein): 2 Mouse; Number of mice that died on each day after infection: day 2 ([1]; 0.2 mg/kg via tail vein): 1 Mouse; Number of mice that died on each day after infection: day 3 ([1]; 0.2 mg/kg via tail vein): 0 Mouse; Number of mice that died on each day after infection: day 4 ([1]; 0.2 mg/kg via tail vein): 2 Mouse; Number of mice that died on each day after infection: day 5 ([1]; 0.2 mg/kg via tail vein): 1 Mouse; Average survival times (Days) ([1]; 0.2 mg/kg via tail vein): 7.3** Days; Number of mice that died on each day after infection: day 1 ([1]; 5 mg/kg via tail vein): 0 Mouse; Number of mice that died on each day after infection: day 2 ([1]; 5 mg/kg via tail vein): 1 Mouse; Number of mice that died on each day after infection: day 3 ([1]; 5 mg/kg via tail vein): 2 Mouse; Number of mice that died on each day after infection: day 4 ([1]; 5 mg/kg via tail vein): 0 Mouse; Number of mice that died on each day after infection: day 5 ([1]; 5 mg/kg via tail vein): 1 Mouse; Average survival times (Days) ([1]; 5 mg/kg via tail vein): 9.7*** Days; survival time of mice infected with Pseudomonas aeruginosa ([1]; tail vein, observed 14 d): superior to those of the Levofloxacin group
CCC[C@@H](NC(=O)[C@@H](CCCCN)NC(=O)[C@@H](CCCNC(=N)N)NC(C)=O)C(=O)N[C@H](CCC)C(=O)N[C@H](Cc1ccc2ccccc2c1)C(=O)N[C@H](CCCNC(=N)N)C(=O)N[C@H](CCC)C(=O)N[C@H](CCCCN)C(=O)N[C@H](Cc1ccc2ccccc2c1)C(=O)N[C@H](CCCNC(=N)N)C(=O)N[C@H](CCCCN)C(N)=O [LV-13] (Ac-[dR][dK][dNva][dNva][d2Nal][dR][dNva][dK][d2Nal][dR][dK]-NH2)	3	1	0	1	0	7.9** Days	2 (≈ 1.25 µM)	4 (≈ 2.49 µM)	2 (≈ 1.25 µM)	4 (≈ 2.49 µM)	2 (≈ 1.25 µM)	1 (≈ 0.623 µM)	–
